Experimental data taken from patent US12458650B2, “Urination disorder-improving agent” (ASKA Pharmaceutical Co., Ltd., priority 2019, dated 2025).

Experiments:
bladder specimen = assay: Test Example 3: isometric contraction test of bladder specimen from high-week-old male rats after repeated oral dosing; format: in vivo, rat; conditions: Group A: 10 mg/kg oral once a day, 2 weeks; compared with Group C (dutasteride 0.3 mg/kg); FIG. 9, 10
Description: High-week-old male rats (22-week-old; Charles River Laboratories Japan, Inc.) were examined and evaluated for the relationship between the test substances and the bladder and urethra contraction reaction. Since the rats are high-week-old, the rats are a model in which the prostate is predicted to be enlarged.
A test substance was orally administered to the high-week-old male rats repeatedly at a frequency of once a day over two (2) weeks, and then, from each rat, a bladder specimen was extracted. The bladder specimen was suspended at a resting tension of about 9.8 mN in a constant-temperature Magnus tube (37° C.) filled with a physiological salt solution aerated with 95% O2-5% CO2 gas and was subjected to an isometric contraction test by applying a square-wave electrical field stimulation (EFS, Amplitude; 0.3 ms, Frequency; 1, 2, 5, 10, 20 Hz, Duration; 5 s); or Carbachol (CCH, 100 nmol/L to 100 μmol/L) and KCl (40, 80 mmol/L).
Solvent group (control group): 0.5 v/v % Polysorbate 80 solution, 10 mL/kg (n=6) • Group A: Compound A, 10 mg/kg (n=6) • Group C: Compound C (dutasteride), 0.3 mg/kg (n=6)

[1] = test system: urination disorder model associated with diabetes; assay: Test Example 4: urination disorder model associated with streptozocin-induced diabetes (cystometry, tissue weights, blood glucose, nomogram); format: in vivo, rat; conditions: for Prostate, Dorsolateral prostate weight / Prostate, Ventral prostate weight: average ± SD; for Dorsolateral prostate (atrophy rate) / Seminal vesicle (atrophy rate) / Ventral prostate (atrophy rate) / Whole prostate (atrophy rate): relative to solvent group; for bladder contraction force on urination by nomogram analysis: in comparison with solvent group, FIG. 17
Experimental: As described below, as a urination disorder model, a urination disorder model associated with diabetes was prepared to evaluate the urination disorder. This model has no benign prostatic hyperplasia and is a model of a urination disorder associated with neuropathy and smooth muscle contraction disorder.
The body weights of rats (male, Crl:CD(SD), 5-week-old; Charles River Laboratories Japan, Inc.) were measured. After the rats were fasted overnight, the blood was collected from the caudal vein to measure the fasting blood glucose. On the basis of the body weight and the tasting blood glucose level, the rats were grouped or divided into two (2) groups by randomized, multivariable block allocation. The day after the rats were grouped, a first group received intraperitoneal administration of a citrate buffer (pH 4.5) (10 mL/kg) having a concentration of 0.1 mmol/L, and a second group received intraperitoneal administration of streptozocin (STZ; Sigma-Aldrich) (50 mg/kg). Streptozocin (STZ) was administered in the form of a solution of streptozocin having a concentration of 5 mg/mL in the citrate buffer.
About one (1) week after streptozocin (STZ) was administered, the body weight and the fasting blood glucose were measured. In the streptozocin (STZ) administration group (the second group), individuals having a fasting blood glucose level of not less than 300 mg/dL were used as animals with induced diabetes. These animals with induced diabetes are a model having no abnormality of the prostate (having no benign prostatic hyperplasia). On the basis of the body weight and the fasting blood glucose level, the animals (models) with induced diabetes were grouped or divided into three (3) groups by randomized, multivariable block allocation.
To the three model groups with induced diabetes, a 0.5 v/v % Polysorbate 80 solution (0.5% P) (10 mL/kg), the compound A (3 mg/kg), and the compound A (10 mg/kg) were orally administered, respectively, wherein the administration schedule in all groups was a frequency of once a day, only on weekdays, over four (4) weeks. Moreover, to the above-mentioned first group, a 0.5 v/v % Polysorbate 80 solution (0.5% P) (10 mL/kg) was orally administered in the same administration schedule (normal group). On the last day of administration, a cannula was inserted into and secured to the dome of the bladder under isoflurane anesthesia, and cystometry (Cystometogram, CMG) was conducted in the order of under awake condition and under urethane anesthesia to measure the intravesical pressure, the voided volume, and the residual urine volume. After the completion of the measurement, the blood was collected under deep isoflurane anesthesia, and then the prostate (ventral prostate, dorsolateral prostate), the seminal vesicle, the bladder, and the kidney were extracted and were each weighed. Moreover, the blood glucose level in the collected blood was measured.
The test substances and the dosage in the test system (rats having the urination disorder associated with diabetes) are as follows. • Normal group: citrate buffer 10 mL/kg (intraperitoneal administration), 0.5% P 10 mL/kg (oral administration) (n=10) • Solvent group (control group): STZ 50 mg/kg (intraperitoneal administration), 0.5% P 10 mL/kg (oral administration) (n=10) • Group A3: STZ 50 mg/kg (intraperitoneal administration), Compound A 3 mg/kg (oral administration) (n=10) • Group A10: STZ 50 mg/kg (intraperitoneal administration), Compound A 10 mg/kg (oral administration) (n=9) Urination Parameter:
The resulting data of the intravesical pressure, the voided volume, and the residual urine volume were analyzed, and the bladder capacity (mL), the residual urine volume (mL), and the urination efficiency (%) were determined as urination parameters in each urination. With respect to these urination parameters, the average value of two measurements was calculated and was taken as a measured value of each individual. […]

[2] = Group A3: 3 mg/kg oral, 4 weeks
[3] = Group A10: 10 mg/kg oral, 4 weeks

For `CC(=O)O[C@]1(C(C)=O)C[C@@H](O)[C@H]2[C@@H]3C=C(Cl)C4=CC(=O)OC[C@]4(C)[C@H]3CC[C@@]21C` [Compound A, 17α-acetoxy-6-chloro-15β-hydroxy-2-oxa-4,6-pregnadiene-3,20-dione], the “bladder contraction tension caused by square-wave electrical field stimulation or Carbachol and KCl” value (bladder specimen) was “significantly strong or has a strong directionality”, the “Prostate, Dorsolateral prostate weight” value [1, 2] was 35.3 ± 7.8 mg/100 g body weight and the “Prostate, Ventral prostate weight” value ([1]; Group A3: 3 mg/kg oral, 4 weeks, male STZ rats) was 62.2 ± 11.4 mg/100 g body weight. The “Dorsolateral prostate (atrophy rate)” value [1, 2] was “(44.2%)”, the “Seminal vesicle (atrophy rate)” value [1, 2] was “(41.8%)” and the “Ventral prostate (atrophy rate)” value [1, 2] was “(43.0%)”. The “Whole prostate (atrophy rate)” value [1, 2] was “(43.4%)”, the urination efficiency ([1]; Group A3: 3 mg/kg, cystometry under anesthesia, FIG. 16) was “improved” and the “bladder contraction force on urination by nomogram analysis” value ([1]; Group A3: 3 mg/kg, cystometry under anesthesia) was “strong bladder contraction force”. The residual urine volume ([1]; Group A3: 3 mg/kg, cystometry under anesthesia, vs solvent group, FIG. 15) was “significantly decreased”, the bladder capacity ([1]; Group A3: 3 mg/kg, cystometry under awake condition, vs solvent group, FIG. 11) was “significantly reduced” and the residual urine volume ([1]; Group A3: 3 mg/kg, cystometry under awake condition, vs solvent group, FIG. 12) was “significantly reduced”. For the same compound, the urination efficiency ([1]; Group A3: 3 mg/kg, cystometry under awake condition, vs solvent group, FIG. 13) was “improved”, the “therapeutic effect on diabetes (blood glucose level relative to the solvent group)” value ([1]; Group A3 and Group A10: 3 and 10 mg/kg oral, 4 weeks) was “no therapeutic effect on diabetes” and the “Prostate, Dorsolateral prostate weight” value [1, 3] was 28.8 ± 6.1 mg/100 g body weight. The “Prostate, Ventral prostate weight” value [1, 3] was 53.1 ± 13.5 mg/100 g body weight, the “Dorsolateral prostate (atrophy rate)” value [1, 3] was “(54.5%)” and the “Seminal vesicle (atrophy rate)” value [1, 3] was “(50.2%)”. The “Ventral prostate (atrophy rate)” value [1, 3] was “(51.3%)”, the “Whole prostate (atrophy rate)” value [1, 3] was “(52.5%)” and the urination efficiency ([1]; Group A10: 10 mg/kg, cystometry under anesthesia, FIG. 16) was “improved”. For the same compound, the bladder capacity ([1]; Group A10: 10 mg/kg, cystometry under anesthesia, P=0.0336, FIG. 14) was “reduced”, the “bladder contraction force on urination by nomogram analysis” value ([1]; Group A10: 10 mg/kg, cystometry under anesthesia) was “strong bladder contraction force” and the residual urine volume ([1]; Group A10: 10 mg/kg, cystometry under anesthesia, vs solvent group, FIG. 15) was “significantly decreased”. For the same compound, the bladder capacity ([1]; Group A10: 10 mg/kg, cystometry under awake condition, vs solvent group, FIG. 11) was “significantly reduced”, the residual urine volume ([1]; Group A10: 10 mg/kg, cystometry under awake condition, vs solvent group, FIG. 12) was “significantly reduced” and the urination efficiency ([1]; Group A10: 10 mg/kg, cystometry under awake condition, vs solvent group, P=0.0359, FIG. 13) was “significantly improved”.
